Measured values taken from patent US7723301B2, “Pharmaceutical compositions comprising an anti-teratogenic compound and applications of the same” (The Board of Trustees of the University of Arkansas, priority 2007, dated 2010).
pEC50: −log10 of the molar value.

How the values were obtained:
Wnt/β-catenin signaling = experiment: TOPflash luciferase reporter assay in CEFs; assay type: cell-based, chicken; settings: Wnt3a-conditioned medium, 24 hours
Protocol: Plasmids with wild type (TOPflash) or mutated (FOPflash) LEF/TCF binding sites (5) upstream of a luciferase reporter gene were transiently transfected into CEFs using Lipofectamine (Invitrogen). Following transfection for 24 hours, the cells were exposed to Wnt3a-conditioned medium or to control medium (6) with or without thalidomide or recombinant human DKK1 (150 ng/ml, R&D Biosystems) for 24 hours prior to luciferase assay. Values were normalized for transfection efficiency by co-transfection with a pSV-β-galactosidase vector and for the number of living cells. Luciferase activity was measured using the Dual-Light System (Applied Biosystems).

[1] = tested on: primary limb bud cells (PLBCs); experiment: Cell death by trypan blue staining in PLBCs; assay type: cell-based, chicken
Protocol: (§1) Primary limb bud cells (PLBCs) were isolated from 60 pooled wing and hindlimb buds of HH stages 23/24 embryos. Fibroblasts were gained from HH stage 34 chicken embryos or from 13.5 d.p.c. mouse embryos. Human embryonic fibroblasts were provided by Matthias Maass (2). Before adding reagents, all cell types were cultured for 16 hours in D-MEM (Gibco) plus 10% fetal calf serum (FCS) and 2% chicken serum. Treatment with thalidomide, phthalimide, recombinant human (rh) BMP4 (300 ng/ml; R&D Systems), juglone (5 μM; Sigma), recombinant mouse Noggin (30, 300, 1000 ng/ml in FIG. 4B; 300 ng/ml in FIGS. 4C and 6A), anti-human-DKK1 antibody (35, 350 and 1000 ng/ml in FIG. 4B; 350 ng/ml in FIGS. 4C and 6A), LiCl (3, 30, 60 mM in FIG. 4B; 30 mM in FIGS. 4C, 6A and 6C) and/or (2Z,3E)-6-Bromoindirubin-3-oxime (BIO, Gsk3-Inhibitor IX; 50, 500, 1000 nM in FIG. 4B; 500 nM in FIG. 6A; 50 and 500 nM in FIG. 6C; Calbiochem) were performed in Optimem1 (Invitrogen) plus 1% FCS. Unless otherwise noted, all treatments with thalidomide and rh-BMP4 and associated controls were done for six hours. Inhibitors were applied once at the beginning of incubation with the exception of LiCl that was added 150 minutes before harvesting the cells for further analyses. Pre-treatment with phenyl-N-t-butylnitrone (PBN; 2 mM; Sigma) was performed for one hour. Incubations with juglone were performed for two hours, if applicable, after a pre-treatment with PBN, Noggin, anti-Dkk1 antibody, LiCl or Gsk3-Inhibitor IX for one hour.
(§2) Cell death in PLBCs, CEFs, MEFs and HEFs was detected by staining with trypan blue (0.1% (w/v) in PBS; Sigma) for 90 seconds. Cells were counted in a counting chamber to determine the ratio of dead to live cells.

[2] = tested on: Bmp4 and Dkk1 expression in PLBCs; experiment: sqRT-PCR of Bmp4 and Dkk1 expression in PLBCs; assay type: cell-based, chicken; settings: 10 μg/ml, six hours
Protocol: as §1
(§3) RNA isolation, semi-quantitative RT-PCRs and whole mount in situ hybridizations were performed according to standard protocols that are well known within the art. RNA was isolated using TRIZOL (Gibco BRL) followed by DNAseI digestion. First strand synthesis was carried out with the Expand RT System (Roche) according to the manufacturer's instructions. PCR amplification was carried out primers and conditions within the knowledge of a person having skill in the relevant art. Quantifications were performed using NIH Image 1.62.

[3] = tested on: Dkk1 and Bmp expression in limb buds; experiment: sqRT-PCR and whole mount in situ hybridization of Dkk1 and Bmp expression in limb buds; assay type: in vivo, chicken
Protocol: as §3

chicken embryos = experiment: Thalidomide-induced limb truncations and microphthalmia in chicken embryos; assay type: in vivo
Protocol: Fertilized eggs were purchased from Deindl GmbH, Rietberg-Varensell. They were incubated at 38° C. in a humidified incubator, windowed after one day and staged according to Hamburger and Hamilton (HH stage). Racemic thalidomide (Celgene), thalidomide enantiomers or phthalimide (Sigma) were dissolved in DMSO at 5 mg/ml and further diluted in PBS. Embryos were exposed to drugs by dropping 15 μg-3 mg thalidomide or phthalimide per kg egg weight (about 1-200 μg per embryo) in 50 μl DMSO/PBS as a single dose at HH stages 0-13 onto the embryo. Thalidomide (50 μg) or phthalimide (50 μg) in 10 μl DMSO was injected into the extra-embryonic blood vessels of HH 19 stage embryos. […] Recombinant Noggin, Dkk1 specific goat IgG (R&D Systems) or serum of non-immunized goats (Sigma) was dissolved in 0.1% BSA/0.01% Fast Green/PBS. Noggin (10 or 100 ng), Dkk1 specific goat IgG (5 or 50 ng) or serum of non-immunized goats (50 ng) was applied to a single embryo at HH stages 17-19 by injecting a 10 μl solution through the extra-embryonic membranes.
The morphology of the limbs was studied in specimens fixed in 5% trichloroacetic acid and stained for cartilage with alcian green as described (3).

[4] = tested on: limb buds of HH stages 23/24 chicken embryos; experiment: Whole mount TUNEL staining of limb buds; assay type: in vivo
Protocol: TUNEL staining was performed as described (7).

[5] = tested on: primary chicken embryonic fibroblasts (CEFs); experiment: Cell death by trypan blue staining in CEFs; assay type: cell-based; settings: 38.7 μM (10 μg/ml), six hours
Protocol: as §1, §2

[6] = tested on: primary embryonic fibroblasts of mice (MEFs); experiment: Cell death by trypan blue staining in MEFs; assay type: cell-based, mouse
Protocol: as §1, with “Inhibitors were applied once at the beginning of incubation with the exception of LiCl that was added 150 minutes before harvesting the cells for further analyses. Pre-treatment with phenyl-N-t-butylnitrone (PBN; 2 mM; Sigma) was performed for one hour. Incubations with juglone were performed for two hours, if applicable, after a pre-treatment with PBN, Noggin, anti-Dkk1 antibody, LiCl or Gsk3-Inhibitor IX for one hour.” left out
as §2

[7] = tested on: Bmp4 and Dkk1 expression in MEFs; experiment: sqRT-PCR of Bmp4 and Dkk1 expression in MEFs; assay type: cell-based, mouse; settings: 10 μg/ml, six hours
Protocol: as §1, with “Inhibitors were applied once at the beginning of incubation with the exception of LiCl that was added 150 minutes before harvesting the cells for further analyses. Pre-treatment with phenyl-N-t-butylnitrone (PBN; 2 mM; Sigma) was performed for one hour. Incubations with juglone were performed for two hours, if applicable, after a pre-treatment with PBN, Noggin, anti-Dkk1 antibody, LiCl or Gsk3-Inhibitor IX for one hour.” left out
RNA isolation, semi-quantitative RT-PCRs and whole mount in situ hybridizations were performed according to standard protocols that are well known within the art. […] Quantifications were performed using NIH Image 1.62.

[8] = chicken, in vivo, 7 day of incubation

`O=C1CCC(N2C(=O)c3ccccc3C2=O)C(=O)N1` (racemic) [thalidomide, 2-(2,6-dioxo-3-piperidyl)isoindole-1,3-dione] was tested, and the “effect on Wnt3a-induced TOPflash activity” value (Wnt/β-catenin signaling) was “clearly counteracted”, the “maximum of cell death in PLBCs” value ([1]; 38.7 μM (10 μg/ml), six to eight hours) was “about 6 -fold above control” and the pEC50 ([1]; Gallus gallus, 6 h, treated for six hours, read-out: EC50 for induction of PCD in PLBCs) was 5.30. For the same molecule, the “expression of Bmp4 and Dkk1 in PLBCs” value [2] was “induced the expression”, the “expression level of Bmp2 in limb buds (sqRT-PCR)” value ([3]; HH stages 23/24 embryos) was “not significantly affected” and the “expression of Bmp4, Bmp5 and Bmp7 in limb buds (sqRT-PCR)” value ([3]; HH stages 23/24 embryos) was “clearly up-regulated”. The “Dkk1 expression in limb buds (sqRT-PCR)” value ([3]; HH stages 23/24 embryos, in comparison to controls) was “dramatically enhanced”, the “limb buds with Bmp4 expression dramatically up-regulated (whole mount in situ hybridization)” value ([3]; HH stages 23/24 embryos, AER, ANZ and PNZ) was 20 of 36 and the “limb buds with Dkk1 expression clearly enhanced (whole mount in situ hybridization)” value ([3]; HH stages 23/24 embryos, AER, underlying mesenchyme and ANZ) was 19 of 64. For the same molecule, the “limb buds with enhanced Bmp expression and PCD” value ([3]; in vivo) was 55%, the “limb buds with increased Dkk1 expression” value ([3]; in vivo) was 30% and the “embryonic lethality in comparison to solvent controls” value (chicken embryos; 750 μg/kg egg weight, HH stages 4/5, first seven days) was “did not significantly increase embryonic lethality”. For the same molecule, the “EC50 for induction of limb and eye defects” value (chicken embryos; applied at HH stages 4/5) was 50 μg/kg egg weight, the “dose inducing a maximum of limb truncations and microphthalmia” value (chicken embryos; chicken, in vivo) was 750 μg/kg egg weight and the “other limb malformations (fusion at the level of the metacarpal cartilage, abducted legs), frequency in total” value (chicken embryos; chicken, in vivo) was “observed, but at a much lower frequency (in total 4%, data not shown)”. For the same molecule, the “embryos showing both limb abnormalities and microphthalmia” value (chicken embryos; [8]) was “about 5%”, the “embryos with uni- or bilateral microphthalmia” value (chicken embryos; [8]) was 21% and the “effect of increasing the amount up to 3 mg/kg egg weight” value (chicken embryos; in vivo) was “neither influenced the quality nor the quantity of limb truncations or microphthalmia”. For the same molecule, the “frequency of limb truncations and microphthalmia on application at later stages” value (chicken embryos; in vivo) was “clearly reduced the frequency of limb truncations and microphthalmia”, the “limb buds with enlarged ANZ (whole mount TUNEL staining)” value ([4]; HH stages 23/24 embryos) was 22 of 40 and the “individual limb buds with enhanced PCD (TUNEL)” value ([4]; chicken, in vivo) was 53%. The “induction of PCD in CEFs compared to controls” value [5] was “six-fold”, the “induction of cell death in MEFs” value ([6]; 38.7 μM (10 μg/ml), six hours) was “did not induce cell death” and the “induction of cell death in MEFs with longer incubation times and concentrations up to 100 μg/ml” value ([6]; up to 100 μg/ml, data not shown) was “did not significantly induce cell death above controls”. The “expression of Bmp4 and Dkk1 in MEFs” value [7] was “not in MEFs”.
